# In US20070010671A1, “Novel quinazoline derivatives and methods of treatment related to the use thereof” (priority 2003, published 2007):
# Molecular target: MCH receptor (Homo sapiens, UniProt Q99705)
# Test: High throughput functional screening FLIPR/FDSS6000: inhibition of MCH-evoked intracellular Ca2+ changes
# Format: cell-based
# Conditions: class by percent of control at 10^-7 M or IC50
# Summary of the method: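 Seed cells the day before, then load them with Fluo4-AM for one hour at 37° C and wash in HEPES-buffered HBSS, pH 7.4. Add compound for 3 min, then stimulate with 50 nM MCH. Monitor the calcium transient for 290 s.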
row,Molecule,class
1,CN(C)c1nc(N[C@H]2CC[C@@H](CNC(=S)NCc3ccc(F)cc3)CC2)nc2ccccc12 [compound 698],3 (Class 3: The value of percent of control at 10^−7 M was more than 60% or the value of IC50 was more than 200 nM.)
2,"CN(C)c1nc(N[C@H]2CC[C@@H](CNC(=O)Nc3ccc(Cl)cc3Cl)CC2)nc2ccccc12 [compound 423, N-(2,4-dichlorophenyl)-N′-[(cis-4-{[4-(dimethylamino)quinazolin-2-yl]amino}cyclohexyl)methyl]urea]",2 (Class 2: The value of percent of control at 10^−7 M was from 40% to 60% or the value of IC50 was from 50 nM to 200 nM.)
3,"Cc1ccc(F)cc1NC(=O)NC[C@H]1CC[C@@H](Nc2nc(N(C)C)c3ccccc3n2)CC1 [compound 567, N-[(cis-4-{[4-(dimethylamino)quinazolin-2-yl]amino}cyclohexyl)methyl]-N′-(5-fluoro-2-methylphenyl)urea]",2 (Class 2: The value of percent of control at 10^−7 M was from 40% to 60% or the value of IC50 was from 50 nM to 200 nM.)
4,"CCc1cccc(CC)c1NC(=S)N[C@H]1CC[C@@H](Nc2nc(N(C)C)c3ccccc3n2)CC1 [compound 250, N-(2,6-diethylphenyl)-N′-(cis-4-{[4-(dimethylamino)quinazolin-2-yl]amino}cyclohexyl)thiourea]",1 (Class 1: The value of percent of control at 10^−7 M was less than 40% or the value of IC50 was less than 50 nM.)
5,CN(C)c1nc(N[C@H]2CC[C@@H](NC(=S)Nc3ccc(I)cc3)CC2)nc2ccccc12 [compound 237],1 (Class 1: The value of percent of control at 10^−7 M was less than 40% or the value of IC50 was less than 50 nM.)
6,CN(C)c1nc(N[C@H]2CC[C@@H](NC(=S)Nc3ccc4nsnc4c3)CC2)nc2ccccc12 [compound 399],3 (Class 3: The value of percent of control at 10^−7 M was more than 60% or the value of IC50 was more than 200 nM.)
7,COc1ccc([N+](=O)[O-])cc1NC(=S)N[C@H]1CC[C@@H](Nc2nc(N(C)C)c3ccccc3n2)CC1 [compound 301],3 (Class 3: The value of percent of control at 10^−7 M was more than 60% or the value of IC50 was more than 200 nM.)
8,"Cc1cc(Cl)cc(Cl)c1NC(=S)N[C@H]1CC[C@@H](Nc2nc(N(C)C)c3ccccc3n2)CC1 [compound 361, N-(2,4-dichloro-6-methylphenyl)-N′-(cis-4-{[4-(dimethylamino)quinazolin-2-yl]amino}cyclohexyl)thiourea]",1 (Class 1: The value of percent of control at 10^−7 M was less than 40% or the value of IC50 was less than 50 nM.)
9,CN(C)c1nc(N[C@H]2CC[C@@H](NC(=S)Nc3ccccc3OC(F)F)CC2)nc2ccccc12 [compound 215],3 (Class 3: The value of percent of control at 10^−7 M was more than 60% or the value of IC50 was more than 200 nM.)
10,CN(C)c1nc(N[C@H]2CC[C@@H](CNC(=S)NCC(c3ccccc3)c3ccccc3)CC2)nc2ccccc12 [compound 714],3 (Class 3: The value of percent of control at 10^−7 M was more than 60% or the value of IC50 was more than 200 nM.)
11,"CN(C)c1nc(N[C@H]2CC[C@@H](NC(=S)Nc3ccccc3-c3ccccc3)CC2)nc2ccccc12 [compound 297, N-biphenyl-2-yl-N′-(cis-4-{[4-(dimethylamino)quinazolin-2-yl]amino}cyclohexyl)thiourea]",1 (Class 1: The value of percent of control at 10^−7 M was less than 40% or the value of IC50 was less than 50 nM.)
12,CN(C)c1nc(N[C@H]2CC[C@@H](CNC(=O)Nc3ccc(F)c(Cl)c3)CC2)nc2ccccc12 [compound 529],1 (Class 1: The value of percent of control at 10^−7 M was less than 40% or the value of IC50 was less than 50 nM.)
13,COC(=O)c1cccc(NC(=S)N[C@H]2CC[C@@H](Nc3nc(N(C)C)c4ccccc4n3)CC2)c1 [compound 263],1 (Class 1: The value of percent of control at 10^−7 M was less than 40% or the value of IC50 was less than 50 nM.)
14,CN(C)c1nc(N[C@H]2CC[C@@H](CNC(=S)NCCc3ccccc3)CC2)nc2ccccc12 [compound 627],3 (Class 3: The value of percent of control at 10^−7 M was more than 60% or the value of IC50 was more than 200 nM.)
15,Cc1ccc(Cl)cc1NC(=S)NC[C@H]1CC[C@@H](Nc2nc(N(C)C)c3ccccc3n2)CC1 [compound 662],2 (Class 2: The value of percent of control at 10^−7 M was from 40% to 60% or the value of IC50 was from 50 nM to 200 nM.)
16,COC(=O)c1cc(NC(=O)N[C@H]2CC[C@@H](Nc3nc(N(C)C)c4ccccc4n3)CC2)cc(C(=O)OC)c1 [compound 331],3 (Class 3: The value of percent of control at 10^−7 M was more than 60% or the value of IC50 was more than 200 nM.)
17,N-[(cis-4-{[4-(dimethylamino)quinazolin-2-yl]amino}cyclohexyl)methyl]-N′-(2-methoxy-5-nitrophenyl)urea [compound 508],2 (Class 2: The value of percent of control at 10^−7 M was from 40% to 60% or the value of IC50 was from 50 nM to 200 nM.)
18,C=C(C)CNC(=S)NC[C@H]1CC[C@@H](Nc2nc(N(C)C)c3ccccc3n2)CC1 [compound 608],3 (Class 3: The value of percent of control at 10^−7 M was more than 60% or the value of IC50 was more than 200 nM.)
19,"CN(C)c1nc(N[C@H]2CC[C@@H](NC(=S)Nc3ccc(C(F)(F)F)cc3)CC2)nc2ccccc12 [compound 231, N-(cis-4-{[4-(dimethylamino)quinazolin-2-yl]amino}cyclohexyl)-N′-[4-(trifluoromethyl)phenyl]thiourea]",2 (Class 2: The value of percent of control at 10^−7 M was from 40% to 60% or the value of IC50 was from 50 nM to 200 nM.)
20,CN(C)c1nc(N[C@H]2CC[C@@H](CNC(=O)Nc3cc(Cl)nc(Cl)c3)CC2)nc2ccccc12 [compound 773],3 (Class 3: The value of percent of control at 10^−7 M was more than 60% or the value of IC50 was more than 200 nM.)

# Same assay, conditions: class by percent of control at 10^-7 M or by IC50; read-out: class
row,IC50 [nM],Molecule
1,50 to 200,"CN(C)c1nc(N[C@H]2CC[C@@H](NC(=O)Nc3ccccc3)CC2)nc2ccccc12 [compound 52, N-(cis-4-{[4-(dimethylamino)quinazolin-2-yl]amino}cyclohexyl)-N′-phenylurea]"
2,> 200,CN(C)c1nc(N[C@H]2CC[C@@H](NC(=O)Nc3ccccc3Cc3ccccc3)CC2)nc2ccccc12 [compound 86]
3,> 200,CN(C)c1nc(N[C@H]2CC[C@@H](NC(=O)Nc3ccc(F)cc3C(F)(F)F)CC2)nc2ccccc12 [compound 823]
4,50 to 200,"CN(C)c1nc(N[C@H]2CC[C@@H](NC(=O)Nc3ccc(I)cc3)CC2)nc2ccccc12 [compound 826, N-(cis-4-{[4-(dimethylamino)quinazolin-2-yl]amino}cyclohexyl)-N′-(4-iodophenyl)urea]"
5,> 200,"Cc1ccc(F)c(NC(=O)N[C@H]2CC[C@@H](Nc3nc(N(C)C)c4ccccc4n3)CC2)c1 [compound 98, N-(cis-4-{[4-(dimethylamino)quinazolin-2-yl]amino}cyclohexyl)-N′-(2-fluro-5-methylphenyl)urea]"
6,50 to 200,"CN(C)c1nc(N[C@H]2CC[C@@H](NC(=O)Nc3cc(F)cc(F)c3)CC2)nc2ccccc12 [compound 125, N-(3,5-difluorophenyl)-N′-(cis-4-{[4-(dimethylamino)quinazolin-2-yl]amino}cyclohexyl)urea]"
7,> 200,Cc1ccc(NC(=O)N[C@H]2CC[C@@H](Nc3nc(N(C)C)c4ccccc4n3)CC2)c([N+](=O)[O-])c1 [compound 44]
8,< 50,"CC(C)c1ccccc1NC(=O)N[C@H]1CC[C@@H](Nc2nc(N(C)C)c3ccccc3n2)CC1 [compound 103, N-(cis-4-{[4-(dimethylamino)quinazolin-2-yl]amino}cyclohexyl)-N′-(2-isopropylphenyl)urea]"

# Same assay, conditions: class by percent of control at 10^−7 M or by IC50; read-out: class
row,IC50 [nM],Molecule
1,< 50,"CN(C)c1nc(N[C@H]2CC[C@@H](NC(=O)c3ccc(Oc4cccc(F)c4F)nc3)CC2)nc2ccccc12 [Example 1064, 6-(2,3-difluorophenoxy)-N-(cis-4-{[4-(dimethylamino)quinazolin-2-yl]amino}cyclohexyl)nicotinamide]"
2,< 50,"CN(C)c1nc(N[C@H]2CC[C@@H](C(=O)NCc3c(F)cccc3F)CC2)nc2ccccc12 [Example 1152, cis-N-(2,6-difluorobenzyl)-4-{[4-(dimethylamino)quinazolin-2-yl]amino}cyclohexanecarboxamide]"
3,< 50,"CN(C)c1nc(N[C@H]2CC[C@@H](C(=O)NCc3cccc(Br)c3)CC2)nc2ccccc12 [Example 1160, cis-N-(3-bromobenzyl)-4-{[4-(dimethylamino)quinazolin-2-yl]amino}cyclohexanecarboxamide]"
4,< 50,"CN(C)c1nc(N[C@H]2CC[C@@H](NC(=O)CNc3cccc(F)c3)CC2)nc2ccccc12 [Example 1087, N-(cis-4-{[4-(dimethylamino)quinazolin-2-yl]amino}cyclohexyl)-N2-(3-fluorophenyl)glycinamide]"
5,< 50,"CN(C)c1nc(N[C@H]2CC[C@@H](CNC(=O)c3cccc(C(F)(F)F)c3)C2)nc2ccccc12 [Example 1127, N-[((1R,3S)-3-{[4-(dimethylamino)quinazolin-2-yl]amino}cyclopentyl)methyl]-3-(trifluoromethyl)benzamide]"
6,> 200,"CN(C)c1nc(N[C@H]2CC[C@@H](NC(=O)Nc3cccc(Cl)c3Cl)CC2)nc2ccccc12 [Example 1013, N-(2,3-dichlorophenyl)-N′-(cis-4-{[4-(dimethylamino)quinazolin-2-yl]amino}cyclohexyl)urea]"
7,< 50,"Cc1cccc(CNC(=O)[C@H]2CC[C@@H](Nc3nc(N(C)C)c4ccccc4n3)CC2)c1 [Example 1165, cis-4-{[4-(dimethylamino)quinazolin-2-yl]amino}-N-(3-methylbenzyl)cyclohexanecarboxamide]"
8,< 50,"COc1cccc(Oc2ncccc2C(=O)N[C@H]2CC[C@@H](Nc3nc(N(C)C)c4ccccc4n3)CC2)c1 [Example 1035, N-(cis-4-{[4-(dimethylamino)quinazolin-2-yl]amino}cyclohexyl)-2-(3-methoxyphenoxy)nicotinamide]"
